The results in this text go back to publication PMC9542247 (Angewandte Chemie (International Ed. in English), 2022).

Non-standard residues stand in square brackets, D forms with d. Residues, ends and D or L forms follow the SMILES beside them. No end group written: not given here.

In this assay the test system is P450Blt (CYP1251 C3). Description: Small scale enzymatic cyclisation. The conditions noted are these: for P450Blt-catalysed cyclisation, result in words: small scale enzymatic cyclisation, LCMS; for loss of P450Blt cyclisation activity compared to 1: fold reduction versus 1. Format: biochemical, Micromonospora sp. MW-13.

Take MSYDH-OH [compound 7]: the “P450Blt-catalysed cyclisation, result in words” value (shortened to “P450Blt-catalysed cyclisation”) is reported as “no further reduction in cyclisation than for 5 alone”.
MSYLH-OH [compound 5]: the “loss of P450Blt cyclisation activity compared to 1” value was “≈ 6 fold”.
Turning to MRYWH-OH [compound 8], the “P450Blt-catalysed cyclisation” value was “almost totally abolished activity”.
The same measure, in the same setting: to RYLH-OH [compound 2] belongs “significantly reduced activity”.
Take `CSCC[C@H](N)C(=O)N[C@@H](CCCNC(=N)N)C(=O)N[C@@H](Cc1ccc(O)cc1)C(=O)N[C@@H](CC(C)C)C(=O)N[C@H](Cc1c[nH]cn1)C(=O)O` [compound 17] (H-MRYL[dH]-OH): the “conversion relative to that of 1” value (relative to 1) is greater than 10%.
For MRYLW [compound 24], the “P450Blt-catalysed cyclisation” value is “very effective”. The “level of cyclisation as fraction of that of 1” value (relative to 1) was 2/3.
For the compound MNYLH-OH [compound 6], the “loss of P450Blt cyclisation activity compared to 1” value is “≈ 2 fold”.
For fMRYLH-OH [f-1], the “P450Blt-catalysed cyclisation” value is listed as “did not affect cyclisation”.
